Measurements from patent publication US20180369186A1, “METHOD FOR MODULATING AUTOPHAGY AND APPLICATIONS THEREOF” (JAWAHARLAL NEHRU CENTRE FOR ADVANCED SCIENTIFIC RESEARCH, priority 2015, published 2018).

Legend:
[1] = tested on: lysosome; experiment: Lysosomal function (lysotracker, LAMP1) in HeLa cells; type: cell-based, human
[2] = tested on: p62; experiment: p62 co-localization with mRFP-MAP1LC3B in HeLa cells; type: cell-based, human
Procedure: Appropriate number of cells are plated on top of coverslips placed in 65 mm cell culture dishes for transfection. Transfected cells are divided into different treatment groups. Post treatment, cells are washed with PBS and fixed in 4% paraformaldehyde and permeabilized using 0.25% Triton X-100, Overnight incubation with Anti-p62/SQSTM1 (rabbit polyclonal, #PM045), Anti-EEA1 (rabbit polyclonal, CST #3288) is done at 4° C. Excess antibody is washed with PBS and coverslips are incubated with Atto-633 (goat anti-rabbit IgG, Sigma #41176). The coverslips are mounted with […] antifade reagent (H-1000/H-1200, Vector laboratories). Imaging for HeLa cells is carried out using Delta vision microscope (Olympus 60×/1.42, Plan ApoN, excitation and emission filter Cy5, FITC and TRITC, polychroic Quad).
ImageJ software (NIH) is used to calculate the mean intensity. Images are opened using the split channel plugin. Co-localization plugin in the analysis tools is used to obtain the colocalized area between two channels as a separate window. The intensity is calculated using the measure plugin in analysis tools.

[3] = tested on: Atg8 and Atg5; experiment: Co-localization of GFP-Atg8 and Atg5-RedStar in yeast; type: cell-based, S. cerevisiae
[4] = tested on: aminopeptidase; experiment: Protease protection assay with aminopeptidase; type: cell-based, S. cerevisiae; conditions: starvation
Procedure: To elucidate the step of action of Bay11, a protease protection assay is performed using aminopeptidase as a marker, which is also a substrate for starvation-induced autophagy. Untreated cells in presence of proteinase K show both the precursor as well as the matured form due to the autophagosome-sequestered membrane-protected cargo and the cytosolic free form, respectively (FIGS. 22D and 22E). […] Combined treatment with Proteinase K and triton X-100 results in conversion of all the precursor form to the matured form in both treated and untreated groups.

[5] = tested on: autophagy (degradation of firefly luciferase); experiment: Dual luciferase assay to monitor autophagy in real time; type: cell-based, S. cerevisiae; conditions: 1 μM, 10 μM, 25 μM and 50 μM
Description: The S. cerevisiae shuttle vectors pRS306 (URA) and pRS305 (LEU) are used to clone the POT1 promoter and the Firefly and Renilla luciferase genes, respectively. The oleate responsive region of the POT1 promoter is amplified from yeast genomic DNA and along with the firefly and Renilla luciferase genes (firefly gene from pMY30 and Renilla gene from pRL-TK) is cloned into these vectors to obtain the constructs pPM3 and pPM5. These plasmid constructs are linearized using suitable restriction enzymes in the selection marker and transformed into wild type strains of S. cerevisiae and P. pastoris by standard transformation methods-Lithium acetate or PEG based transformation. […]
To validate the luciferase assay developed in the laboratory, it is compared to the conventional Pot1-GFP processing assay, Both pexophagy and general autophagy are measured by following the rates of degradation of firefly and Renilla activities (FIG. 1A).
Thus, a 3 standard deviation (SD) parameter is used as a criterion to obtain the hits from the primary screen. […] Both the inhibitors show a dose dependent inhibition in autophagy as determined using luciferase assay wherein inhibition by concentrations 1 μM, 10 μM, 25 μM and 50 μM of the inhibitors are assessed and inhibition is observed to increase as concentration increases from 1 μM to 50 μM. […]

| Compound | LAMP1 positive vesicle intensities and distribution [1] | lysotracker staining (lysosome acidification) ([1]; 2 h) | p62 accumulation relative to mRFP-MAP1LC3B-positive compartments [2] | Atg5 punctate structures ([3]; vs single puncta in untreated cells) | co-localization between Atg8 and Atg5 dots ([3]; vs untreated cells) | form of aminopeptidase upon proteinase K treatment [4] | effect on rates of degradation of firefly luciferase (inhibition of autophagy) [5] |
| --- | --- | --- | --- | --- | --- | --- | --- |
| O=C1Nc2cc(Br)ccc2/C1=C1/Nc2ccccc2/C1=N\O [6-Bio, (2′Z,3′E)-6-Bromoindirubin-3′-oxime] | unaltered | no change in lysosome acidification | – | – | – | – | – |
| Cc1ccc(S(=O)(=O)/C=C/C#N)cc1 [Bay11, 3-[(4-methylphenyl)sulfonyl]-(2E)-propenenitrile] | – | – | outside | multiple puncta | significantly more co-localization | only the mature form of aminopeptidase | dose dependent effect |
